How the values were obtained:
[1] = tested on: Patients suffering from diabetic neuropathic pain; test: Clinical study in human diabetic neuropathic pain patients (double-blind, placebo-controlled, 112 days); type: in vivo; settings: 1800 mg/day total dosage
Description: FIG. 1 depicts the average VAS score (y-axis) during the last week of treatment of the clinical study described in Example 1. The darker area represents the scores obtained in the group of patients obtaining oxcarbazepine at a daily dosage of 1800 mg (N=68). The brighter area represents the score for the placebo group (N=76). FIG. 2 illustrates the average VAS score (y-axis) by week (x-axis) of the clinical study described in Example 1. The upper lines represents the score for the placebo group (N=76). The lower line represents the scores obtained in the group of patients obtaining oxcarbazepine at a daily dosage of 1800 mg (N=68). In a clinical study in a Caucasian patient population, a full double-blind treatment was conducted for a period of 112 days. Patients suffering from diabetic neuropathic pain obtained placebo or oxcarbazepine.

[2] = tested on: patients with neuropathic pain of diabetic origin; test: Impact of oxcarbazepine on sleep in human diabetic neuropathic pain patients (daily sleep questionnaire); type: in vivo; settings: up to 1800 mg/day; for Awaken from sleep, % days during double-blind phase, mean (SD): P 0.02 vs placebo
Description: In a multicenter, placebo-controlled, double-blind, parallel-group study the efficacy of oxcarbazepine up to 1800 mg/day in patients with neuropathic pain of diabetic origin was evaluated. The study consisted of three phases: a pre-randomization screening phase (2 weeks); a double-blind treatment phase (18 weeks); and an open-label extension phase (52 weeks). The double-blind treatment phase was further divided into a titration period of 4 weeks, a maintenance period of 12 weeks, and a follow-up period of 2 weeks. Patients who met all inclusion criteria were randomized in a 1:1 ratio to receive either study medication or placebo during double-blind treatment (16 weeks). After randomization into the double-blind treatment phase, oxcarbazepine or placebo was initiated at 300 mg/day, and increased 3 days later to 300 mg twice a day (600 mg/day). After this, oxcarbazepine was titrated as tolerated up to a maximum target dose of 900 mg twice a day (1800 mg/day) in increments of 300 mg every 5 days over the 4-week titration period. During the remaining 12 weeks of the study (maintenance period), oxcarbazepine treatment remained at the dose reached by day 28. Patient response to the following three questions from the daily sleep questionnaire were used to assess disturbances of sleep over double-blind treatment: 1) Did your pain delay you in getting to sleep last night? 2) Did your pain awaken you from sleep more than one time last night? 3) Did you feel rested after sleep this morning?

[3] = difference did not achieve statistical significance

## NC(=O)N1c2ccccc2CC(=O)c2ccccc21 [Oxcarbazepine, 10-oxo-10, 11-dihydro-5H-dibenz[b,f]azepine-5-carboxamide]
[1]; Caucasian patient population, 112 days double-blind, p=0.0108
  average Visual Analog Scale (VAS) for pain severity score during the last week of double-blind treatment, versus placebo: statistically significantly superior to placebo
[1]; placebo group 39.7%, p=0.0003
  percentage of responders (those felt slightly, much, or very much improved): 73.2%
[2]; ITT population, n = 68
  Awaken from sleep, % days during double-blind phase, mean (SD): 31 (29) % days
[2]; ITT population, n = 68, listed as oxcarbazepine
  Awaken from sleep, % days during double-blind phase, mean (SD): 31 % days
[2]; ITT population, n = 68, P 0.09 vs placebo
  Delayed getting to sleep, % days during double-blind phase, mean (SD): 28 (31) % days
[2]; ITT population, n = 68, P 0.17 vs placebo
  Felt rested after sleep, % days during double-blind phase, mean (SD): 55 (34) % days
[2]; [3]
  proportion of patients experiencing delays in getting to sleep, in comparison with placebo: lower proportion
  proportion of patients who felt rested after sleep, in comparison with placebo: greater proportion
